The source of these data is patent publication US20250304594A1, “METHYL (R)-2-(FLUOROMETHYL)-5-OXO-4-PHENYL-4,5,6,7-TETRAHYDRO-1H-CYCLOPENTA[B]PYRIDINE-3-CARBOXYLATE AND METHYL (R)-2-(FLUOROMETHYL)-5-OXO-4-PHENYL-1,4,5,7-TETRAHYDROFURO[3,4-B]PYRIDINE-3-CARBOXYLATE AS Cav1,2 ACTIVATORS” (Novartis AG, priority 2020, published 2025).

In the assay the target is T1, human CaV1.2 (Homo sapiens, UniProt Q13936).
T1 construct: expressed in transfected cells; host or cells: Flp-In 293 T-Rex (HEK293), monoclonal CaV1.2-HEK293(AUX) clone 2-19B; doxycycline-induced auxiliary subunits
T1 sequence (Q13936 1-2138 isoform Q13936-23): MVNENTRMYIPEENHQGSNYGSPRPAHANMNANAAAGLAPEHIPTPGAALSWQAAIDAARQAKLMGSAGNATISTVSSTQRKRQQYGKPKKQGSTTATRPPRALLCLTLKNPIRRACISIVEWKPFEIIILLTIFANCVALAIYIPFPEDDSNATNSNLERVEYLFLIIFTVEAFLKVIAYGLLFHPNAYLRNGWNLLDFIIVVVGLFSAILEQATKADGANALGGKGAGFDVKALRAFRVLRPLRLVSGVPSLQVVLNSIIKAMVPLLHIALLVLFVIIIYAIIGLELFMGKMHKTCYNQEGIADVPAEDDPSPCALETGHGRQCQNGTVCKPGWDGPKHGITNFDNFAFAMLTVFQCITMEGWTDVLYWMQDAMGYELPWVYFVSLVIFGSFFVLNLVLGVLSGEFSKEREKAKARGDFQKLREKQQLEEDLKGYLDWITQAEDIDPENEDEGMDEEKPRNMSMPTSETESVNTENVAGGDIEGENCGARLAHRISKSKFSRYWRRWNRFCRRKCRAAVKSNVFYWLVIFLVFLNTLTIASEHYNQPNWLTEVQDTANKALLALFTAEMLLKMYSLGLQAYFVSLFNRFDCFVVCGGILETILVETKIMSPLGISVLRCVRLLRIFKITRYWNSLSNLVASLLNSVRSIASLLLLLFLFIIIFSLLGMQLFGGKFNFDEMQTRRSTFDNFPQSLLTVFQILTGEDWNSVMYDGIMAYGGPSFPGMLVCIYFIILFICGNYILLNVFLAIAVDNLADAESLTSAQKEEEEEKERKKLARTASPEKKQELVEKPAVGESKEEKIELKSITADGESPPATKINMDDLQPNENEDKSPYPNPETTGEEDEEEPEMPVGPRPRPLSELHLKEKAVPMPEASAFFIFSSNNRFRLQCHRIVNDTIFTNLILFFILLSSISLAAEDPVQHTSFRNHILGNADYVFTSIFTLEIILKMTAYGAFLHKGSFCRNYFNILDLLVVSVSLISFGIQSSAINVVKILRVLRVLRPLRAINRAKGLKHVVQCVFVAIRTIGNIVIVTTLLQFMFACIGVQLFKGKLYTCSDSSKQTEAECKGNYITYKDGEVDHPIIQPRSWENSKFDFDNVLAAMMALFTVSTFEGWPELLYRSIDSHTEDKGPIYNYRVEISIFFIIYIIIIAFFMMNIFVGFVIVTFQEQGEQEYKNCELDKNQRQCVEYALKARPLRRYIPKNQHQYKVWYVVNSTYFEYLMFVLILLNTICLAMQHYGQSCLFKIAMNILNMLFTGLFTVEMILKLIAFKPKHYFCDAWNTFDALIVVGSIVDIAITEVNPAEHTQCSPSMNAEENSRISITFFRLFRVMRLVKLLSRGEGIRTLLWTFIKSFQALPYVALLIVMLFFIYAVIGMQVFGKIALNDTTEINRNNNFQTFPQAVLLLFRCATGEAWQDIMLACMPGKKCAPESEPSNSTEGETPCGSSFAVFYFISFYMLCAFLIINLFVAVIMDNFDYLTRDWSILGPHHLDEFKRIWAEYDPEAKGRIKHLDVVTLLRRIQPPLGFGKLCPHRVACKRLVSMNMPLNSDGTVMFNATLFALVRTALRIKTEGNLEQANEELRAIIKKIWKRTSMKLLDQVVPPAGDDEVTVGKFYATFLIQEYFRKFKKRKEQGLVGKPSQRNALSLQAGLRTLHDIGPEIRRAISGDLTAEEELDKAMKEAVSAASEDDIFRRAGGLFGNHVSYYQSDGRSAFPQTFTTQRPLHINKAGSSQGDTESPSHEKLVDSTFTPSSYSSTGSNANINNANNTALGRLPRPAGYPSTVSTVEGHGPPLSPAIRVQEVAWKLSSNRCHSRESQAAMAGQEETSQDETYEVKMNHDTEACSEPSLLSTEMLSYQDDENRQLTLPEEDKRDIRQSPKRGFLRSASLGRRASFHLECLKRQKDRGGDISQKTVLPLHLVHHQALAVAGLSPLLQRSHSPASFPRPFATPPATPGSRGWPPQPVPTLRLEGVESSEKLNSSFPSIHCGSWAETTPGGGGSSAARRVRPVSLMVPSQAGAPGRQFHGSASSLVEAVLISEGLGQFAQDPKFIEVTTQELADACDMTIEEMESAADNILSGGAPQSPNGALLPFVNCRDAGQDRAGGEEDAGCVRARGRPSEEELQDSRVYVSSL
T1 sequence (Q9NY47 19-1001 partner limits assumed): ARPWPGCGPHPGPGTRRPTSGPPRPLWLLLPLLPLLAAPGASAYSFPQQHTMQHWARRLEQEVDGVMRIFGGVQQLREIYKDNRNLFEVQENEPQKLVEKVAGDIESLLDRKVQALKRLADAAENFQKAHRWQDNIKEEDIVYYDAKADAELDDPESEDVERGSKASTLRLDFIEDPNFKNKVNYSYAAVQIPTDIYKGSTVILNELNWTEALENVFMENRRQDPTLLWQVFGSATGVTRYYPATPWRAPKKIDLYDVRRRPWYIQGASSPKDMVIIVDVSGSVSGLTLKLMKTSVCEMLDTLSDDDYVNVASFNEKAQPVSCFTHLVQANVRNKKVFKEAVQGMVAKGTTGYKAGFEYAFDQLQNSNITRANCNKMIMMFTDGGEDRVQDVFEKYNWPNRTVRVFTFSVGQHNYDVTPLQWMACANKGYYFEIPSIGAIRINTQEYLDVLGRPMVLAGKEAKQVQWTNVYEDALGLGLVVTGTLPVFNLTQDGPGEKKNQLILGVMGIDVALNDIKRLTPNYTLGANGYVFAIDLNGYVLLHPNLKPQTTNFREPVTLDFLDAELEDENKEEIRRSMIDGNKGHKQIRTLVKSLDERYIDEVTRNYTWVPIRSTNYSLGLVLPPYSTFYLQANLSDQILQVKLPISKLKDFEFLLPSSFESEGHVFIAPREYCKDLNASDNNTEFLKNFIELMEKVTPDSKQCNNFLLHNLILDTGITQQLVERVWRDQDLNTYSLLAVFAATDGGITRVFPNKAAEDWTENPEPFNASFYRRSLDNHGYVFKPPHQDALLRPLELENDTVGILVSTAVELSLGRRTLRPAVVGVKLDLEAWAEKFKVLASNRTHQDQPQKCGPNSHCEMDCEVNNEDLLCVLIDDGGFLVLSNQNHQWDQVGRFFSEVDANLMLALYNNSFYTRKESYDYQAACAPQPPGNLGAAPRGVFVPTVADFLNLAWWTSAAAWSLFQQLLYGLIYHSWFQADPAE
T1 sequence (Q9NY47 1002-1150 partner limits assumed): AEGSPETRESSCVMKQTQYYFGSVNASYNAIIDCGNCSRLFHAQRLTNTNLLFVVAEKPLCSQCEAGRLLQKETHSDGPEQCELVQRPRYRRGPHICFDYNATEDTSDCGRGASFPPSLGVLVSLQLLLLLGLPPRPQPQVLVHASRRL
T1 sequence (Q08289 whole entry partner): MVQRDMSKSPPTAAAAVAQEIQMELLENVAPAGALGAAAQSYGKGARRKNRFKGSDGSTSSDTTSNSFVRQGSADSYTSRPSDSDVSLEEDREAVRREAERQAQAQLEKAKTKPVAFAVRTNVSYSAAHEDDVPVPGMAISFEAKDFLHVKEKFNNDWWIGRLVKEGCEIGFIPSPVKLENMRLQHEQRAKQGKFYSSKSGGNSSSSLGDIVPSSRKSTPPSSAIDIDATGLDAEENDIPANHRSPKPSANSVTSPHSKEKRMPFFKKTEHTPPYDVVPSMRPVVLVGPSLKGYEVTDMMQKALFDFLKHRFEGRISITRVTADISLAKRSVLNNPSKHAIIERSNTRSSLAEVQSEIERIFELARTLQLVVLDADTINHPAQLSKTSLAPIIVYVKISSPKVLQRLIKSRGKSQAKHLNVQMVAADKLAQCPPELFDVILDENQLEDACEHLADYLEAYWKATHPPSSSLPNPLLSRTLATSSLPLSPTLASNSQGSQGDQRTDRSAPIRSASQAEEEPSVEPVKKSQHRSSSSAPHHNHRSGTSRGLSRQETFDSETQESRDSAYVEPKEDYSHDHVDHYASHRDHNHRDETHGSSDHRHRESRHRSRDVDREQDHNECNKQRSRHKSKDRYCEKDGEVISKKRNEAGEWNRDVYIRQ
As to the kind of experiment: QPatch channel biophysics assay (channel gating, V1/2 of activation, inactivation) in CaV1.2-HEK293(AUX) cells. The class given is cell-based. The settings on record: Table 9; shift of half-way channel activation voltage V1/2. An excerpt:
The monoclonal CaV1.2-HEK293(AUX) cell line constitutively expresses human CaV1.2 alpha1C (α1C) subunit (CACNA1C) and has doxycycline-inducible expression of the alpha2delta (α2Δ2) auxiliary subunit (CACNA2D2) and beta2 (02) auxiliary subunit (CACNB2). To generate the cell line, expression vectors pcDNA5.0/FRT-TO-CACNA2D2-FCS-P2A-CACNB2 and pCMV6-entry-CACNA1C were established via gene synthesis and cloning. Here, pcDNA5.0/FRT-TO plasmid is from Invitrogen, pCMV6-entry is from Origene, FCS stands for Furin Cleavage Site, P2A is a peptide self-cleavage sequence derived from porcine teschovirus-1, and FRT is the Flippase recognition target site. Next, parental line Flp-In™ 293 T-Rex (Invitrogen) was transfected with pcDNA5.0/FRT-TO-CACNA2D2-FCS-P2A-CACNB2 and Flippase vector pOG44 (Invitrogen) to establish targeted integration of the CACNA2D2-FCS-P2A-CACNB2 expression cassette into the pre-engineered FRT site in Flp-In™ 293 T-Rex. This intermediate cell line was then transfected with pCMV6-entry-CACNA1C to establish stable CACNA1C expression. Clonal isolation was achieved under Neomycin selection. A cell clone (2-19B) with good voltage-dependent Barium current (see electrophysiology methods below) was selected for characterization of CaV1.2 activators.
24 hours prior an electrophysiology experiment, doxycycline (1 μg/ml) was added to the growth medium (Table 6), and 25 μM of verapamil was co-applied to prevent calcium influx triggered cell death. Cell confluency should reach 70%-80% right before the experiment. To harvest cells (from a T175 cm^2 flask as an example), growth media were removed completely, and the cells were rinsed with 10 mL of D-PBS. D-PBS was aspirated, and 10 mL of Detachin (Genlantis) was added and the plate was placed in a 37° C. incubator for 10 minutes. Detached cells were placed into a 15 mL conical tube and spun at 1000 rpm for 2 minutes. Supernatant was removed, and cells were re-suspended in QPatch complete media (Table 7) to desired cell density of 1.5-3 million cells per QPatch run. Each experimental run uses 1.5 mL of cells.
The cells suspension was taken to the Sophion QPatch platform that uses whole-cell voltage clamp to measure barium currents conducted through CaV1.2 on single-hole QPlates. Extracellular and intracellular patch clamp solutions are described in Tables 7 and 8, respectively. A dose-response assay protocol was used to determine the maximal fold change of peak inward current (Emax) and potency (EC50) of each compound. The protocol had eight liquid periods. The first liquid period was to stabilize current amplitude, which was monitored using repetitive 200-ms voltage pulses stepping from −80 mV to 0 mV. The second liquid period was to determine baseline current amplitude in the presence of vehicle control, using a single 20-ms voltage pulse stepping from −80 mV to 0 mV. The third through eighth liquid periods were used to ascertain a 6-dose response to compound treatments, also using single 20-ms voltage pulses stepping from −80 mV to 0 mV. The EC50 was generated using the following equation Iconcentration=Ibase+(Ifull−Ibase)*c^n/(XC50^n+c^n), where c is the concentration and n is the Hill coefficient constant. Ifull is the maximal current achievable, and Ibase is 0. A channel biophysics assay protocol was used to determine channel gating properties including current-voltage relationship (IV curves), half-way channel activation voltage (V1/2), rate of channel inactivation (tau), and amplitude of tail current. Among these, V1/2 was derived from fitting equation G(V)=Gvmin+(Gvmax−Gvmin)/(1+exp(−(V−V½)/Vslope)), where G stands for conductance, Gvmin equals 0, Gvmax is the maximal conductance, and Vslope is a slope factor. G(V) was pre-calculated from equation G(V)=I(V)/(V−0.06), for each experimentally applied depolarization potential (V) and the corresponding current amplitude (I(V)), and 0.06 in the equation was the experimentally determined reversal potential in volts. […]
For `COC(=O)C1=C(CF)NC2=C(C(=O)OC2)[C@H]1c1cccc(F)c1C(F)F` (single isomer, unassigned) [Example 15], the “Biophysics voltage shift (mV)” value was −5.7 mV.

As to `COC(=O)C1=C(CF)NC2=C(C(=O)OC2)[C@H]1c1cccc(F)c1[C@H](F)CF` (single isomer, unassigned) [Example 6], the “Biophysics voltage shift (mV)” value was −6.3 mV.

`COC(=O)C1=C(CF)NC2=C(C(=O)OC2)[C@H]1c1ccccc1OC(F)F` (single isomer, unassigned) [Example 9]: the “Biophysics voltage shift (mV)” value was −4.5 mV.

For `COC(=O)C1=C(CF)NC2=C(C(=O)OC2)[C@H]1c1cccc(F)c1C1CC1` (single isomer, unassigned) [Example 2], the “Biophysics voltage shift (mV)” value is −4.5 mV.

Take `COC(=O)C1=C(CF)NC2=C(C(=O)OC2)[C@H]1c1cccc(F)c1C(F)(F)F` (single isomer, unassigned) [Example 17]: the “Biophysics voltage shift (mV)” value was −6.8 mV.

Turning to `COC(=O)C1=C(CF)NC2=C(C(=O)OC2)[C@H]1c1cc(F)cc(F)c1[C@H]1CC1(F)F` (single isomer, unassigned) [Example 4, Methyl (R)-4-(2-((R or S)-2,2-difluorocyclopropyl)-3,5-difluorophenyl)-2-(fluoromethyl)-5-oxo-1,4,5,7-tetrahydrofuro[3,4-b]pyridine-3-carboxylate], the “Biophysics voltage shift (mV)” value is −4.4 mV.

On to `COC(=O)C1=C(CF)NC2=C(C(=O)OC2)[C@H]1c1cc(F)cc(F)c1C1CC1` (single isomer, unassigned) [Example 13], for which the “Biophysics voltage shift (mV)” value is reported as −0.7 mV.

For the compound `COC(=O)C1=C(CF)NC2=C(C(=O)OC2)[C@H]1c1cccc(F)c1[C@H]1CC1(F)F` (single isomer, unassigned) [Example 1, methyl (R)-4-(2-((R or S)-2,2-difluorocyclopropyl)-3-fluorophenyl)-2-(fluoromethyl)-5-oxo-1,4,5,7-tetrahydrofuro[3,4-b]pyridine-3-carboxylate], the “Biophysics voltage shift (mV)” value is −5.9 mV.

As for `COC(=O)C1=C(CF)NC2=C(C(=O)OC2)[C@H]1c1cc(F)cc(F)c1C(F)(F)F` (single isomer, unassigned) [Example 10], the “Biophysics voltage shift (mV)” value is −2.3 mV.

With `COC(=O)C1=C(CF)NC2=C(C(=O)OC2)[C@H]1c1cccc(F)c1[C@@H](C)F` (single isomer, unassigned) [Example 8], the “Biophysics voltage shift (mV)” value is reported as −5.4 mV.

In the case of `COC(=O)C1=C(CF)NC2=C(C(=O)CC2)[C@H]1c1cccc(F)c1[C@@H](F)CF` (single isomer, unassigned) [Example 7, methyl (R)-4-(2-((R or S)-1,2-difluoroethyl)-3-fluorophenyl)-2-(fluoromethyl)-5-oxo-4,5,6,7-tetrahydro-1H-cyclopenta[b]pyridine-3-carboxylate], the “Biophysics voltage shift (mV)” value was −6.3 mV.

Turning to `COC(=O)C1=C(CF)NC2=C(C(=O)CC2)[C@H]1c1cccc(F)c1C1CC1` (single isomer, unassigned) [Example 28], the “Biophysics voltage shift (mV)” value is reported as −7.2 mV.

`COC(=O)C1=C(CF)NC2=C(C(=O)OC2)[C@H]1c1cc(F)cc(F)c1C(F)F` (single isomer, unassigned) [Example 18]: the “Biophysics voltage shift (mV)” value is recorded as −5.2 mV.

As for `COC(=O)C1=C(CF)NC2=C(C(=O)OC2)[C@H]1c1cccc(F)c1CC(F)F` (single isomer, unassigned) [Example 11], the “Biophysics voltage shift (mV)” value is −5.0 mV.

On to `COC(=O)C1=C(CF)NC2=C(C(=O)OC2)[C@H]1c1cc(F)cc(F)c1[C@H](F)CF` (single isomer, unassigned) [Example 16, methyl (R)-4-(2-((R or S)-1,2-difluoroethyl)-3,5-difluorophenyl)-2-(fluoromethyl)-5-oxo-1,4,5,7-tetrahydrofuro[3,4-b]pyridine-3-carboxylate], for which the “Biophysics voltage shift (mV)” value is listed as −5.8 mV.

As for `COC(=O)C1=C(CF)NC2=C(C(=O)OC2)[C@H]1c1cc(F)ccc1C(F)(F)F` (single isomer, unassigned) [Example 23], the “Biophysics voltage shift (mV)” value is −6.2 mV.

Turning to `COC(=O)C1=C(CF)NC2=C(C(=O)OC2)[C@H]1c1cc(F)cc(F)c1[C@H]1CC1(F)F` (single isomer, unassigned) [Example 3, Methyl (R)-4-(2-((R or S)-2,2-difluorocyclopropyl)-3,5-difluorophenyl)-2-(fluoromethyl)-5-oxo-1,4,5,7-tetrahydrofuro[3,4-b]pyridine-3-carboxylate], the “Biophysics voltage shift (mV)” value came out at 0.1 mV.

Turning to `COC(=O)C1=C(CF)NC2=C(C(=O)OC2)[C@H]1c1cc(F)cc(F)c1[C@H](C)F` (single isomer, unassigned) [Example 5, methyl (R)-4-(3,5-difluoro-2-((R or S)-1-fluoroethyl)phenyl)-2-(fluoromethyl)-5-oxo-1,4,5,7-tetrahydrofuro[3,4-b]pyridine-3-carboxylate], the “Biophysics voltage shift (mV)” value is on record as −4.6 mV.
